Where no end group is shown, it is not given here.
Experiments:
[1] = test system: Acinetobacter baumannii ATCC 19606; assay: Antibacterial screen at 200 μg/mL (cell density vs control); type: cell-based; settings: peptide 200 μg/mL, CAMHB, 5 × 10^5 CFU/mL, 37°C, 12 h, OD600; control (no AMP) = 1; three biological replicates
Protocol: (§1) Eight bacterial strains were utilized in the antibacterial experiment. S. aureus ATCC 12600, B. subtilis ATCC 23857, E. coli ATCC 11775, and A. baumannii ATCC 19606 were purchased from Shanghai Beinuo Biology. M. luteus ATCC 4698 and S. bongori ATCC43975 were purchased from Shanghai Beisi Biotechnology. V. owensii ems001 and V. alginolyticus xv22 from the intestines of diseased shrimps were isolated in our laboratory. All strains were cultured in the cation‐adjusted Mueller‐Hinton broth (CAMHB) at 37°C to the logarithmic growth phase (OD600 = 0.5). Then, bacteria were gradient‐diluted using fresh CAMHB to a bacterial density of 5 × 10^5 CFU/mL. Antibacterial experiments were performed in a 96‐well plate with 200 μg/mL final peptide concentration. Four experimental groups were set up, including a blank control (200 μL CAMHB), a negative control (180 μL CAMHB plus 20 μL peptide), a positive control (180 μL bacterial culture plus 20 μL ultrapure water), and an experimental group (180 μL bacterial culture plus 20 μL peptide). Three biological replicates were conducted for each group, and OD600 values were measured after incubation at 37°C for 12 h. Every observed value was removed from the blank control group value. The value of the experimental group was then subtracted from the value of the negative control group therefore eradicating the effect of the peptide on the OD measurement. Student's t‐test allowed the estimation of a notable variation between the experimental and positive groups using a p‐value of 0.05 as the limit. […] The MIC of a peptide against a bacterium was determined as the minimum peptide concentration at which there was no visible bacterial growth.

[2] = test system: Bacillus subtilis ATCC 23857; assay: as above; type: cell-based; settings: peptide 200 μg/mL, CAMHB, 5 × 10^5 CFU/mL, 37°C, 12 h, OD600; control (no AMP) = 1; three biological replicates
Protocol: as §1

[3] = test system: Escherichia coli ATCC 11775; assay: as above; type: cell-based; settings: peptide 200 μg/mL, CAMHB, 5 × 10^5 CFU/mL, 37°C, 12 h, OD600; control (no AMP) = 1; three biological replicates
Protocol: as §1

[4] = test system: Micrococcus luteus ATCC 4698; assay: as above; type: cell-based; settings: peptide 200 μg/mL, CAMHB, 5 × 10^5 CFU/mL, 37°C, 12 h, OD600; control (no AMP) = 1; three biological replicates
Protocol: as §1

[5] = test system: Salmonella bongori ATCC 43975; assay: as above; type: cell-based; settings: peptide 200 μg/mL, CAMHB, 5 × 10^5 CFU/mL, 37°C, 12 h, OD600; control (no AMP) = 1; three biological replicates
Protocol: as §1

[6] = test system: Staphylococcus aureus ATCC 12600; assay: as above; type: cell-based; settings: peptide 200 μg/mL, CAMHB, 5 × 10^5 CFU/mL, 37°C, 12 h, OD600; control (no AMP) = 1; three biological replicates
Protocol: as §1

[7] = test system: Vibrio alginolyticus xv22; assay: as above; type: cell-based; settings: peptide 200 μg/mL, CAMHB, 5 × 10^5 CFU/mL, 37°C, 12 h, OD600; control (no AMP) = 1; three biological replicates
Protocol: as §1

[8] = test system: Vibrio owensii ems001; assay: as above; type: cell-based; settings: peptide 200 μg/mL, CAMHB, 5 × 10^5 CFU/mL, 37°C, 12 h, OD600; control (no AMP) = 1; three biological replicates
Protocol: as §1

[9] = test system: sheep red blood cells; settings: red cells of sheep, 1 h
Protocol: Freshly collected sheep blood was centrifuged at 3000 rpm for 10 min, and the supernatant was removed. The pellet was washed and resuspended with normal saline water to produce a 2% blood cell solution. Then, 400 μL of peptide solution was added to 100 μL of 2% blood cell solution to achieve final peptide concentrations of 8, 16, 32, 64, and 128 μg/mL. Normal saline water and Triton X‐100 normal saline solution (2%) were used as negative and positive controls, respectively. The samples were incubated in a water bath at 37°C for 1 h, followed by centrifugation at 3000 rpm for 10 min. Then, 200 μL of the supernatant was transferred to a 96‐well plate, and OD values were measured at a wavelength of 545 nm. The hemolysis rate of each sample was calculated using the following formula: Hemolysis ratio=OD545(experimental)−OD545(negative control)/OD545(positive control)−OD545(negative control)×100%.

Row | Sequence | cell density relative to control, A. baumannii ATCC 19606 [1] | cell density relative to control, B. subtilis ATCC 23857 [2] | cell density relative to control, E. coli ATCC 11775 [3] | cell density relative to control, M. luteus ATCC 4698 [4] | cell density relative to control, S. bongori ATCC 43975 [5] | cell density relative to control, S. aureus ATCC 12600 [6] | cell density relative to control, V. alginolyticus xv22 [7] | cell density relative to control, V. owensii ems001 [8] | Hemolysis ratio (%) at 8μg/mL [9] [%] | Hemolysis ratio (%) at 16μg/mL [9] [%] | Hemolysis ratio (%) at 32μg/mL [9] [%] | Hemolysis ratio (%) at 64μg/mL [9] [%] | Hemolysis ratio (%) at 128μg/mL [9] [%]
1 | MAWISTRIACCCSTRLRRRIRTCSTSFCR [Cand-218, chemically synthesized candidate AMP predicted from marine biofilm bacteria] | 0.029 | 0.004 | 0.021 | 0.052 | 0.938 | 0 | 0.049 | 0.001 |  |  |  |  | 
2 | MCALKWFCKSLIRALNKAT [Cand-68, chemically synthesized candidate AMP predicted from marine biofilm bacteria] | 0 | 0 | 0 | 0.001 | 0.024 | 0 | 0.012 | 0 |  |  |  |  | 
3 | MCCVGRGVSFLRTRKCFIKS [Cand-161, chemically synthesized candidate AMP predicted from marine biofilm bacteria] | 0.543 | 0 | 0 | 0.788 | 0.12 | 0.001 | 0 | 0 |  |  |  |  | 
4 | MCRFKCKVRTTITRPVCCWLIFM [Cand-168, chemically synthesized candidate AMP predicted from marine biofilm bacteria] | 1 | 0 | 0.553 | 1 | 0.482 | 1 | 0.418 | 0 |  |  |  |  | 
5 | MCRWWPDWWHHRWWHCRGCCRFCRG [Cand-111, chemically synthesized candidate AMP predicted from marine biofilm bacteria] | 1 | 1 | 0.669 | 1 | 0.794 | 0.202 | 0.477 | 0.357 |  |  |  |  | 
6 | MLTWLKKLQPYLISMMR [Cand-44] |  |  |  |  |  |  |  |  | 3.540 | 1.775 | 3.660 | 5.713 | 19.067
7 | MRPKKWLKKPKPRPKKWPTK [Cand-210] |  |  |  |  |  |  |  |  | 0.520 | 0.079 | 0.689 | 1.792 | 
8 | MSPCLKGVIRSAVKSLHR [Cand-53] |  |  |  |  |  |  |  |  | 2.990 | 2.497 | 3.703 | 3.585 | 
9 | MSPIRAWRRLRSC [Cand-144] |  |  |  |  |  |  |  |  | 1.328 | 1.615 | 1.536 | 3.230 | 10.013
10 | MWIRLTKRLRKSRSNR [Cand-214] |  |  |  |  |  |  |  |  | 1.812 | 2.604 | 3.258 | 3.738 | 
11 | MWPLSKLWPSCFRKTT [Cand-5] |  |  |  |  |  |  |  |  | 2.350 | 1.575 | 0.874 | 7.118 | 

Source: publication PMC11683478, “Bioprospecting of culturable marine biofilm bacteria for novel antimicrobial peptides” (iMeta, 2024)
